Measured values from patent US11332716B2, “Methods and compositions for producing pancreatic beta cells” (The Regents of the University of California, priority 2015, dated 2022).

Experiments:
[1] = test system: MEL1 INS GFP/W hESC spheres; assay: hESC suspension differentiation, qPCR of NGN3 and NKX2.2 at day 8; assay type: cell-based, human; settings: compared to RCN condition / during RCN or R treatment
Experimental: FIGS. 16A-16D. Published protocols result in precocious endocrine differentiation by NEUROG3 activation. FIGS. 16A-C: Analysis of key pancreatic progenitor markers in clusters differentiated as outlined in FIG. 15A. R=Retinoic acid, C=Cyclopamine, N=Noggin, E=Epidermal growth factor, K=Keratinocyte growth factor, T=TBP, and A=ALK inhibitor. Data shown are representative of two independent experiments. FIG. 16A: PDX1, INS, GCG, NEUROG3, and NKX6.1 protein expression was assessed by whole mount staining of differentiated clusters at indicated time points. Note precocious expression of the endocrine marker NEUROG3 in the absence of NKX6.1 protein at days 6-9. FIGS. 16B and 16C: Flow cytometric quantification of PDX1^+ (orange gate), PDX1^+/NKX6.1^+ (blue gate), INS^+/NKX6.1^+ (green gate), and INS^+/NKX6.1^− (red gate) cells at indicated time points. […]
Total RNA was isolated with TRIZOL (Sigma) or micro/mini RNAeasy kit (Qiagen) and reverse transcribed using the iScript cDNA Kit (Bio-Rad) according to manufacturer's instructions. qPCR analysis was performed on an ABI 7900 HT Fast Real-Time PCR System (Applied Biosystems) and CFX Connect Real Time System (Biorad) using standard protocols. […] P-values were calculated using a two-tailed student's t-test. […]

[2] = test system: pancreatic endodermal progenitor cells (cPE cells); assay: Maturation of cPE cells into C-peptide positive cells, chemical screen; settings: added individually to basal pancreatic differentiation media
[3] = test system: pancreatic endodermal progenitor (cPE) cells; assay: Protocol 2 maturation of cPE cells into cPB cells (INSULIN mRNA, C-peptide cells)
Flt3 = target: T1, Flt3 (Homo sapiens, UniProt P36888); settings: at 1 nM; cited from earlier work
T1 sequence (P36888 27-993): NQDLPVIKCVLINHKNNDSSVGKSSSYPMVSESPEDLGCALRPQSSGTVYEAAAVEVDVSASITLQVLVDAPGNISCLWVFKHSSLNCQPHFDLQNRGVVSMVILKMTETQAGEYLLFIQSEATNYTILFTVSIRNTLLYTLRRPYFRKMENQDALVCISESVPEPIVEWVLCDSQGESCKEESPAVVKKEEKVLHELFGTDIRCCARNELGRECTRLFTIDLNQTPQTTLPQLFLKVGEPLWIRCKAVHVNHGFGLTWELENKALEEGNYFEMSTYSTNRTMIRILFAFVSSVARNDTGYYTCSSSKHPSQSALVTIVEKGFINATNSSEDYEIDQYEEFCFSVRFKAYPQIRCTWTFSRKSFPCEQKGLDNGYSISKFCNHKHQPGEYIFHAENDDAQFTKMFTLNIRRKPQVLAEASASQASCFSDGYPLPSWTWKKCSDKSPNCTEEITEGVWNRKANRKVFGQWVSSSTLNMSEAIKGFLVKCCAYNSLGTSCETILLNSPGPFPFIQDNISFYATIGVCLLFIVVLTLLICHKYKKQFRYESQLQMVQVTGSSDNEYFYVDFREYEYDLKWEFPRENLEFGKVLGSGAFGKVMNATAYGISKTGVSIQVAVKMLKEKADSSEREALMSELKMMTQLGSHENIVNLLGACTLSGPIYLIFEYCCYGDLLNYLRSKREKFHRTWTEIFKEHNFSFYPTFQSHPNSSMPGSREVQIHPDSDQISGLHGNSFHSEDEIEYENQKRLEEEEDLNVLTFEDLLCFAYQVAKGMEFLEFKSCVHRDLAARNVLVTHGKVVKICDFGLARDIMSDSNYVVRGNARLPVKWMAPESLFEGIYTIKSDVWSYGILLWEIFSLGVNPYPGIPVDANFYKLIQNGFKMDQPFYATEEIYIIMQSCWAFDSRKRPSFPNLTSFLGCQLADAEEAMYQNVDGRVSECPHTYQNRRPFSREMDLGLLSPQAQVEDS

ALK = ALK (Homo sapiens, UniProt Q9UM73); settings: at 1 nM; cited from earlier work
ALK, sequence (Q9UM73 19-1620, species assumed): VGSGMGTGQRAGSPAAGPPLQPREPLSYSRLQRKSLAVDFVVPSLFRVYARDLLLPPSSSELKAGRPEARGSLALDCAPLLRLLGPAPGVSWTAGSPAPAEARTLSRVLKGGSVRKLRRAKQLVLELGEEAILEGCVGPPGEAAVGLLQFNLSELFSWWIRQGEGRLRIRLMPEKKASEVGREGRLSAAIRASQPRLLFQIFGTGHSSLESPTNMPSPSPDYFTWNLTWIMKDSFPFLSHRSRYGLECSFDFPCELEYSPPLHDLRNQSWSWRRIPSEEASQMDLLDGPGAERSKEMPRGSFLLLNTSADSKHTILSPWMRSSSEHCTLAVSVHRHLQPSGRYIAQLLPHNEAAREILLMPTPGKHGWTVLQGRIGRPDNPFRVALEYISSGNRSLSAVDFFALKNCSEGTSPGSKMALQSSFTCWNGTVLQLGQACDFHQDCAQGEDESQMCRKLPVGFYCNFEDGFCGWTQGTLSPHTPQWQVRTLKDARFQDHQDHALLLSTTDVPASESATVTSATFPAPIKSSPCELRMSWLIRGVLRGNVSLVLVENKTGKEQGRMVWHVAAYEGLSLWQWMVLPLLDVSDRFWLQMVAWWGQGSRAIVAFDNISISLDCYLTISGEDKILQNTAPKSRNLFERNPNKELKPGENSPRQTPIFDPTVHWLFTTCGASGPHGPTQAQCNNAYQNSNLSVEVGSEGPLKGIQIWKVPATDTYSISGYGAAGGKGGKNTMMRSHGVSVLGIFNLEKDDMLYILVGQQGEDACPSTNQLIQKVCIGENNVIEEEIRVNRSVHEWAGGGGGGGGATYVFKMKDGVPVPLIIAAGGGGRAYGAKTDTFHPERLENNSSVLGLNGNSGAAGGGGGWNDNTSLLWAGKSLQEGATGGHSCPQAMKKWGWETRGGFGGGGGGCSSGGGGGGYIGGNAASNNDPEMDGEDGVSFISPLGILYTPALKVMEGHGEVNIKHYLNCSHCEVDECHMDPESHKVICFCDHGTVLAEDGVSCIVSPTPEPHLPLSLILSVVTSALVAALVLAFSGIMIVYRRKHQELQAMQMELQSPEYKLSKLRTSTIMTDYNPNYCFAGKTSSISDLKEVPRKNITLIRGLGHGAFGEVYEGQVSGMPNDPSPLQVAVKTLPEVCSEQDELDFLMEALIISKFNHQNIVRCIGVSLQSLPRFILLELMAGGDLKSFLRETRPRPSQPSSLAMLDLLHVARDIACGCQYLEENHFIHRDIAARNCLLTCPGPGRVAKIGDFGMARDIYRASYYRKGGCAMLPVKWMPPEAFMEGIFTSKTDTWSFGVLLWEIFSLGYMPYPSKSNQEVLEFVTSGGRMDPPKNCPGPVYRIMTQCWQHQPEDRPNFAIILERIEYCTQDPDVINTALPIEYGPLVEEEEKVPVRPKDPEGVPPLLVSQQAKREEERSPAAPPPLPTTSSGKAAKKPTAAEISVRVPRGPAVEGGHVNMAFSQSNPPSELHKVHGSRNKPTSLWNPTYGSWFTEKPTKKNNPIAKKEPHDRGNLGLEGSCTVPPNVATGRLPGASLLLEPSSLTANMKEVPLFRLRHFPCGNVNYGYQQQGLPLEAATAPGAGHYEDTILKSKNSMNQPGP

LTK = LTK (Homo sapiens, UniProt P29376); settings: at 1 nM; cited from earlier work
LTK, sequence (P29376 17-864, species assumed): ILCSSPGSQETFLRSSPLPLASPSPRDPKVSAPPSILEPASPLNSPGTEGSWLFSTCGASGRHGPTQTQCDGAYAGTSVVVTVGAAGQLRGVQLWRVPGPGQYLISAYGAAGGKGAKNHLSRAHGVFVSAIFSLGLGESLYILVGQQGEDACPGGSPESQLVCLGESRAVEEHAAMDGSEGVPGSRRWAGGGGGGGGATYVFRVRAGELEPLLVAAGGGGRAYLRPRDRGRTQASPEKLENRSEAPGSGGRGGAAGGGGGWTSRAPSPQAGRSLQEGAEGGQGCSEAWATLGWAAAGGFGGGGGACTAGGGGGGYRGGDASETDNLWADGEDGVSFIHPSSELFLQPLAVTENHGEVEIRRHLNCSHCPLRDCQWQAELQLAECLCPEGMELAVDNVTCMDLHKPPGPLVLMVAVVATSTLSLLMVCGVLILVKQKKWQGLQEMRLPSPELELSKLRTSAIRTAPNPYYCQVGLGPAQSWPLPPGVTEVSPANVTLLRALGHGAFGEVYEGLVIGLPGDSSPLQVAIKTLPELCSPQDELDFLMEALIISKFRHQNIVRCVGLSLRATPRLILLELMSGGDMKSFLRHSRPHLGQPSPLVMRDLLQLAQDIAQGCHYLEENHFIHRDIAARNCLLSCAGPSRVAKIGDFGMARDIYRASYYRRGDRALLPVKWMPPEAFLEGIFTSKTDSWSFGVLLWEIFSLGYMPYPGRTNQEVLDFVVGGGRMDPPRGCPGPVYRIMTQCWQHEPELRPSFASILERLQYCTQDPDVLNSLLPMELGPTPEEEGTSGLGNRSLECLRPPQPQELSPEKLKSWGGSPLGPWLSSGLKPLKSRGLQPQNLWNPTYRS

Axl = target: T2, Axl (Homo sapiens, UniProt P30530); settings: at 1 nM; cited from earlier work
T2 sequence (P30530 26-894): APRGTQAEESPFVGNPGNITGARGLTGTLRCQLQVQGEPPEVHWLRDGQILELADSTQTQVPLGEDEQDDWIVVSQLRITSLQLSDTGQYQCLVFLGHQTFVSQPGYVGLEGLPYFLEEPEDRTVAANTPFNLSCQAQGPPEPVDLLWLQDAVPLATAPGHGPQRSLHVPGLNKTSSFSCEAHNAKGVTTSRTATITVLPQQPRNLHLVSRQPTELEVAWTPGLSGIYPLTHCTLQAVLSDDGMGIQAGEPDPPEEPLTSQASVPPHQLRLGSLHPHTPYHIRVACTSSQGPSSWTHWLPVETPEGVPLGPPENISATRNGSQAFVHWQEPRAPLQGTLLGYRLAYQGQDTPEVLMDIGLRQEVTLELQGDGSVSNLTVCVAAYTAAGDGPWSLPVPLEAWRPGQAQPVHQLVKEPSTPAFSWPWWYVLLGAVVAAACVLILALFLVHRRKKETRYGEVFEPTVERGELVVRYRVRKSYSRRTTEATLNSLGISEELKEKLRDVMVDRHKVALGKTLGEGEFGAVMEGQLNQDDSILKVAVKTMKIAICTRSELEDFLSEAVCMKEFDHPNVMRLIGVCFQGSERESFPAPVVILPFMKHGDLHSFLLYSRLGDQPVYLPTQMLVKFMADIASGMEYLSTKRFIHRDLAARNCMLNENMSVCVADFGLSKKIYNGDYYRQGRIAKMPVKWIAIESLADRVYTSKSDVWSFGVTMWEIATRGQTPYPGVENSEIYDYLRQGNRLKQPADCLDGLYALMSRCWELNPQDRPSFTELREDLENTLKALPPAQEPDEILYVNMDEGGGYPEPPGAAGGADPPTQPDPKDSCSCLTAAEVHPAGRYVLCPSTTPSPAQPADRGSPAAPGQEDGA

[4] = test system: MEL1 INS GFP/W hESC spheres; assay: hESC suspension differentiation, flow cytometry of PDX1 and NKX6.1; assay type: cell-based, human; settings: alone, conditions 2 and 3; day 9.5
Source text: Treatments consisted of combinations of Cyclopamine (C), Noggin (N), and retinoic acid (R) during days 6-8, followed by subdivision of each condition into three treatment groups during day 9-9.5. Group 1) continuation of day 6-8 treatment; Group 2) treatment with EGF and KGF (EK); Group 3) treatment with EGF, KGF, and Noggin (EKN). […] Data shown are representatives of results obtained in two independent experiments. […] FIG. 17B: Quantification of PDX1 (orange gate) and NKX6.1 (blue gate) protein expressing cells in individual conditions after 9.5 days of differentiation.
Suspension-based differentiations were carried out as follows. Briefly, confluent cultures were dissociated into single cell suspension by incubation with TrypLE (Gibco). […] To induce definitive endoderm differentiation, aggregates were collected 24 hours later in a 50 ml falcon tube, allowed to settle by gravity, washed once with PBS and re-suspended in d1 media (RPMI (Gibco) containing 0.2% FBS, 1:5000 ITS (Gibco), 100 ng/ml Activin A, and 50 ng/ml WNT3a (R&D systems)). Clusters from 3 wells were combined into 2 wells at this point and distributed into fresh low-attachment plates in 5.5 ml d1 media. Media thereafter was changed daily, by removing either 4.5 ml media (at the end of d1) or 5.5 ml media the following days and adding back 5.5 ml fresh media until day 9. After day 9, only 5 ml of media was removed and added daily.
Briefly, spheres were collected and allowed to settle by gravity. Clusters were washed once in PBS and dissociated by gentle pipetting after 12-15 minutes incubation in Accumax (Innovative Cell Technologies). For sorting, cell suspensions were filtered and re-suspended in FACS buffer consisting of phosphate-buffered saline (PBS) (UCSF cell culture facility) containing 2 mM EDTA (Ambion) and 1% BSA (Sigma). Dead cells were excluded by DAPI (Sigma) staining Cell sorting was performed on a FACS Aria II (BD Bioscience). […]

[5] = test system: MEL1 INS GFP/W hESC spheres; assay: hESC suspension differentiation, NEUROG3 immunofluorescence; assay type: cell-based, human; settings: days 6-9.5
Experimental: Undifferentiated MEL1 INS^GFP/W reporter cells (Micallef et al, 2012) were maintained on mouse embryo fibroblast feeder layers (Millipore) in hESC media as described (Guo et al, 2013b). Suspension-based differentiations were carried out as follows. Briefly, confluent cultures were dissociated into single cell suspension by incubation with TrypLE (Gibco). Cells were counted and each well of 6-well low-adherence plates were seeded with 5.5×10^6 cells in 5.5 ml hES media supplemented with 10 ng/ml Activin A (R&D systems) and 10 ng/ml HeregulinB1 (Peprotech). Plates were placed on an orbital shaker at 100 rpm to induce sphere formation, as described (Schulz et al, 2012). To induce definitive endoderm differentiation, aggregates were collected 24 hours later in a 50 ml falcon tube, allowed to settle by gravity, washed once with PBS and re-suspended in d1 media (RPMI (Gibco) containing 0.2% FBS, 1:5000 ITS (Gibco), 100 ng/ml Activin A, and 50 ng/ml WNT3a (R&D systems)). Clusters from 3 wells were combined into 2 wells at this point and distributed into fresh low-attachment plates in 5.5 ml d1 media. Media thereafter was changed daily, by removing either 4.5 ml media (at the end of d1) or 5.5 ml media the following days and adding back 5.5 ml fresh media until day 9. After day 9, only 5 ml of media was removed and added daily. […]

Q: Which results are given for O=C1O[C@H]([C@@H](O)CO)C(O)=C1O [Vitamin C]?
A: NEUROG3 (NGN3) and NKX2.2 mRNA transcripts [1]: did not significantly lower; percentage of C-peptide positive cells, individual supplementation [2]: effective in increasing; number of C-peptide positive cells co-expressing PDX1 and NKX6.1 [3]: increased; expression of the INSULIN gene (mRNA) ([3]; day 21, compared to DMSO controls): promoted expression

Q: Which results are given for CCc1nc(C(N)=O)c(Nc2ccc(N3CCC(N4CCN(C)CC4)CC3)c(OC)c2)nc1NC1CCOCC1 [ASP2215]?
A: inhibition of FLT3 (Flt3): over 50%; inhibition of ALK (ALK): over 50%; inhibition of LTK (LTK): over 50%; inhibition of AXL (Axl): over 50%

B1: Noggin: the BMP inhibitor Noggin (protein, UniProt Q13253 28-232, looked up)
Noggin: QHYLHIRPAPSDNLPLVDLIEHPDPIFDPKEKDLNETLLRSLLGGHYDPGFMATSPPEDRPGGGGGAAGGAEDLAELDQLLRQRPSGAMPSEIKGLEFSEGLAQGKKQRLSKKLRRKLQMWLWSQTFCPVLYAWNDLGSRFWPRYVKVGSCFSKRSCSVPEGMVCKPSKSVHLTVLRWRCQRRGGQRCGWIPIQYPIISECKCSC
Q: For B1, which “generation of PDX1+ cells over base media alone” value [4] is on record?
A: Its value is “did not result in enhanced generation”.

Q: And the “NEUROG3 expression (endocrine differentiation)” value [5]?
A: The value was “noted only when spheres had been exposed to N”.
